Where two headings read alike, the source gives them in different places.
Assays:
plasma kallikrein (PKa) = plasma kallikrein (PKa) (Homo sapiens, UniProt P03952); assay: Isolated enzyme potency against PKa, IC50 after enzyme/inhibitor preincubation time course; conditions: for Inhibition of PKa (in words): preincubation time course
Protocol: (§1) Isolated enzyme potency was determined against PKa and FXIIa, using FXIIa as a test for the selective binding interaction with PKa.

FXIIa = biological target: T1, FXIIa (Homo sapiens, UniProt P00748); assay: Isolated enzyme potency against FXIIa, preincubation time course; conditions: for IC50: read-out: FXIIa IC50; for Inhibition of FXIIa activity (in words): time course experiments
T1 sequence (P00748 373-615 limits assumed): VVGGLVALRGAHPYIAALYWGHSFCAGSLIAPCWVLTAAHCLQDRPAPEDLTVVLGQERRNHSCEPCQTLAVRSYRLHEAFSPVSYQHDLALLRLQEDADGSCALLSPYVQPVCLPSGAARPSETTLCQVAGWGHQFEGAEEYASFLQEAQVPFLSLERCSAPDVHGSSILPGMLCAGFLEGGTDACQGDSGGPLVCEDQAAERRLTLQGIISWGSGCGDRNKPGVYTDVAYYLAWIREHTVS
Protocol: as §1

[1] = Stability in DMSO and aqueous media (LCMS observation); format: physicochemical; conditions: protodeborylation observed by LCMS
PKa [2] = biological target: T2, PKa (Homo sapiens, UniProt P03952); assay: Compound dissociation assay (jump dilution); conditions: 62.5-fold dilution after 10 min preincubation; monitored over 600 s with fluorogenic substrate
T2 sequence (P03952 391-638 limits assumed): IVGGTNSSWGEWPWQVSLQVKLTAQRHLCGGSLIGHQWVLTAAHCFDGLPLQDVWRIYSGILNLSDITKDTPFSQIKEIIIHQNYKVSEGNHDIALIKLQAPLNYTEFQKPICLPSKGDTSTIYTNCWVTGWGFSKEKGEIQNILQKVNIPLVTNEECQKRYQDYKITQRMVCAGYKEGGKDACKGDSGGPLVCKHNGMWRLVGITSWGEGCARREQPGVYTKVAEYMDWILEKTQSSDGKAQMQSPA
T2 sequence (P03952 20-390 partner limits assumed): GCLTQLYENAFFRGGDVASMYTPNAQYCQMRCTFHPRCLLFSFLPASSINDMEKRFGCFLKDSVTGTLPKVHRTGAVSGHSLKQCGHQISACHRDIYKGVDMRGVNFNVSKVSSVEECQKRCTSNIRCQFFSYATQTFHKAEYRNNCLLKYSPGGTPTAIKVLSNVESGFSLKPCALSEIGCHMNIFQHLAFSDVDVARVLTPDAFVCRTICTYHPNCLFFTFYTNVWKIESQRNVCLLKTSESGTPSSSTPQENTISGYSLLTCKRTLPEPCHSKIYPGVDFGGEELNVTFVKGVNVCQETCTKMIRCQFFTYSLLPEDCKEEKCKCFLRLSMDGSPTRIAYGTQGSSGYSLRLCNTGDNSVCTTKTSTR

Plasmin = Plasmin (Homo sapiens, UniProt P00747); assay: Time-dependent potency determination against plasmin
Sequence of Plasmin (P00747 581-810 limits assumed, species assumed): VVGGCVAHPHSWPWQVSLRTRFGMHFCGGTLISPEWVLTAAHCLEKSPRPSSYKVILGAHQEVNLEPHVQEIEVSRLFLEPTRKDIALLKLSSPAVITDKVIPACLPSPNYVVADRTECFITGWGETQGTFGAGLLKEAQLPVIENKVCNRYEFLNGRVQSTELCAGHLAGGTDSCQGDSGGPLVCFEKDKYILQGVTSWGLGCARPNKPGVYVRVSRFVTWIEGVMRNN
Sequence of Plasmin (P00747 97-580 partner limits assumed, species assumed): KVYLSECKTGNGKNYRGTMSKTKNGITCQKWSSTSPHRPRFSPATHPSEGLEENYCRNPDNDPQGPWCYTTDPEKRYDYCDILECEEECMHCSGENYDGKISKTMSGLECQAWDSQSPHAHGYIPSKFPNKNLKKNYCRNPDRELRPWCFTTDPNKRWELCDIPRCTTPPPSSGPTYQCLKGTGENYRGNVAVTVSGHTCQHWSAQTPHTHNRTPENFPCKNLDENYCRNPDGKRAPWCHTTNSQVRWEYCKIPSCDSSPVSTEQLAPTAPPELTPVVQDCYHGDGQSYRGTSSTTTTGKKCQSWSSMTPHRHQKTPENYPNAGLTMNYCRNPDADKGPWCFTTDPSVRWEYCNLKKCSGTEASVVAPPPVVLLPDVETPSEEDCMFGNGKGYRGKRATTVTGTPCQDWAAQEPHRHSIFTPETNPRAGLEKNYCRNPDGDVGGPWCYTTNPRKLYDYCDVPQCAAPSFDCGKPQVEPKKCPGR
Protocol: (§2) Time-dependent potency determination was carried out against FXIa, thrombin, trypsin, and plasmin to further evaluate the selectivity of compounds (Table 3).

Thrombin = Thrombin (Homo sapiens, UniProt P00734); assay: Time-dependent potency determination against thrombin
Protocol: as §2

FXIa = FXIa (Homo sapiens, UniProt P03951); assay: Time-dependent potency determination against FXIa; format: biochemical
Sequence of FXIa (P03951 388-625 limits assumed): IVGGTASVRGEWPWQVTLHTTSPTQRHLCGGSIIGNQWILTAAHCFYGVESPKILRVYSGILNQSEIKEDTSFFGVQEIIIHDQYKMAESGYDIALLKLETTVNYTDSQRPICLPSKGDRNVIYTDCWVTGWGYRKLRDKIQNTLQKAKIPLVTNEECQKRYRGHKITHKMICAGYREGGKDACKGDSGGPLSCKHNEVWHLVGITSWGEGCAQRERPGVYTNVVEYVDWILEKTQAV
Sequence of FXIa (P03951 19-387 partner limits assumed): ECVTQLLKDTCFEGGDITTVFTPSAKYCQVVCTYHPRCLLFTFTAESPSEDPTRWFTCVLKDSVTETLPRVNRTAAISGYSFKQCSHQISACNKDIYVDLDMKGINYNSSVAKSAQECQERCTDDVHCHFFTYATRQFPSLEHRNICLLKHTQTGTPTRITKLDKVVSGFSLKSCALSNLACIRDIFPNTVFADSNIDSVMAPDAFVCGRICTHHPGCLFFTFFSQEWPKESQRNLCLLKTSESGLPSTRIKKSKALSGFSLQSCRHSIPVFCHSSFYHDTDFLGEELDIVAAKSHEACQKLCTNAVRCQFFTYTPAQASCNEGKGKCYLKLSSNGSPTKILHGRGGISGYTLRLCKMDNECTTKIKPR
Text: S5: Pharmacology: Material and Methods :

Trypsin = assay: Time-dependent potency determination against trypsin; conditions: read-out: Trypsin IC50
Protocol: as §2

[3] = NMR stability study of pinacol boronate in PBS buffer; format: physicochemical; conditions: pH7.4 phosphate buffer (D2O)
Protocol: Molecular docking experiments were conducted to visualize the potential binding mode of 20. However, it soon became apparent that the pinacol boronate group was too large to fit into the Ser195 subpocket. Having previously experienced hydrolysis of the pinacol boronate during purification, model substrate 17b was used to study the stability of the pinacol boronate in PBS buffer by NMR (see Supporting Information Figure S1).

[4] = biological target: phosophodiesterase 4 (PDE4) enzyme; design: method as in PMID 19303290; conditions: read-out: potency; cited from earlier work
PKa [5] = biological target: T2, PKa; conditions: competitive, reversible inhibitor; cited from earlier work
[6] = design: method as in PMID 34282650; conditions: 150 mg daily dose, clinical studies; cited from earlier work
[7] = read-out: PKa IC50, 5 min preincubation
[8] = read-out: PKa IC50, 60 min preincubation
[9] = read-out: PKa IC50, 1 min preincubation
[10] = read-out: PKa IC50, 10 min preincubation
[11] = Plasmin IC50, 1 min preincubation
[12] = Plasmin IC50, 10 min preincubation
[13] = Plasmin IC50, 60 min preincubation
[14] = read-out: Thrombin IC50, 10 min preincubation
[15] = read-out: Thrombin IC50, 60 min preincubation

Sequence of plasma kallikrein (PKa) (P03952 391-638 limits assumed): as the sequence (P03952 391-638 limits assumed) above
Sequence of plasma kallikrein (PKa) (P03952 20-390 partner limits assumed): as the sequence (P03952 20-390 partner limits assumed) above

For `O=C(NC(B(O)O)c1cccc(Cl)c1)c1cnn(Cc2ccccc2)c1` (centres unmarked) [Compound 18], the “Inhibition of PKa (in words)” value (plasma kallikrein (PKa)) was “no activity”, the IC50 (plasma kallikrein (PKa); [7]) was greater than 400000 nM and the IC50 (plasma kallikrein (PKa); [8]) was greater than 400000 nM. The IC50 (FXIIa; 5 min preincubation) was greater than 400 µM, the IC50 (FXIIa; 60 min preincubation) was greater than 400 µM and the “Inhibition of FXIIa activity (in words)” value (FXIIa) was “no activity”. The “Stability in DMSO / aqueous media” value [1] was “instability in DMSO and aqueous media”.
For `Cc1ccc(C(NC(=O)c2cnn(Cc3ccc(Cn4cccn4)cc3)c2)B2OC(C)(C)C(C)(C)O2)c(F)c1` (centres unmarked) [Compound 20], the “Inhibitor dissociation from PKa” value (PKa [2]) was “no apparent reversibility”, the IC50 (plasma kallikrein (PKa)) was 0.33 nM and the IC50 (plasma kallikrein (PKa); [9]) was 66 nM. The IC50 (plasma kallikrein (PKa); [10]) was 6.9 nM, the IC50 (plasma kallikrein (PKa); [8]) was 0.3 nM and the IC50 (plasma kallikrein (PKa); read-out: PKa IC50, 2 h, extended time course) was 0.29 nM. For the same compound, the IC50 (plasma kallikrein (PKa); read-out: PKa IC50, 24 h) was 0.07 nM, the “Inhibition of FXIIa activity (in words)” value (FXIIa) was “no effect” and the IC50 (Plasmin; [11]) was 22 µM. For the same compound, the IC50 (Plasmin; [12]) was 19.8 µM, the IC50 (Plasmin; [13]) was 12.1 µM and the IC50 (Thrombin) was greater than 40 µM. It also gave an IC50 (Thrombin; [14]) greater than 40 µM, an IC50 (Thrombin; [15]) greater than 40 µM and an IC50 (FXIa; 1 min preincubation) of 18.8 µM. It also gave an IC50 (FXIa; 10 min preincubation) of 16.5 µM, an IC50 (FXIa; 60 min preincubation) of 12.2 µM and an IC50 (Trypsin; 1 min preincubation) greater than 40 µM. For the same compound, the IC50 (Trypsin; 10 min preincubation) was greater than 40 µM and the IC50 (Trypsin; 60 min preincubation) was greater than 40 µM.
In the case of `Cc1ccc(C(NC(=O)c2cnn(Cc3ccccc3)c2)B2OC(C)(C)C(C)(C)O2)c(F)c1` (centres unmarked) [Compound 17b], the IC50 (FXIIa; 5 min preincubation) is reported as greater than 400 µM, the IC50 (FXIIa; 60 min preincubation) is reported as greater than 400 µM and the “Stability of the pinacol boronate in PBS buffer by NMR” value [3] is reported as “rapidly hydrolyzed”.
Work on `CC1(C)OB(C(CC(=O)c2cnn(Cc3ccc(Cn4cccn4)cc3)c2)c2cccc(Cl)c2)OC1(C)C` (centres unmarked) [Compound 31] yielded an IC50 (Plasmin; [11]) greater than 40 µM, an IC50 (Plasmin; [12]) greater than 40 µM and an IC50 (Plasmin; [13]) greater than 40 µM. The IC50 (Thrombin) was greater than 40 µM, the IC50 (Thrombin; [14]) was greater than 40 µM and the IC50 (Thrombin; [15]) was greater than 40 µM. The IC50 (FXIa; 1 min preincubation) was greater than 40 µM, the IC50 (FXIa; 10 min preincubation) was greater than 40 µM and the IC50 (FXIa; 60 min preincubation) was greater than 40 µM.
With `O=C(NCc1cccc(Cl)c1)c1cnn(Cc2ccc(Cn3cccn3)cc2)c1` [Compound 24] the “Inhibitor dissociation from PKa” value (PKa [2]) was “rapid dissociation”, the “Inhibition of PKa (in words)” value (plasma kallikrein (PKa)) was “no PKa inhibition” and the IC50 (plasma kallikrein (PKa); [9]) was greater than 40000 nM. It also gave an IC50 (plasma kallikrein (PKa); [10]) greater than 40000 nM, an IC50 (plasma kallikrein (PKa); [8]) greater than 40000 nM and an IC50 (Plasmin; [11]) greater than 40 µM. It also gave an IC50 (Plasmin; [12]) greater than 40 µM, an IC50 (Plasmin; [13]) greater than 40 µM and an IC50 (Thrombin) greater than 40 µM. For the same compound, the IC50 (Thrombin; [14]) was greater than 40 µM, the IC50 (Thrombin; [15]) was greater than 40 µM and the IC50 (FXIa; 1 min preincubation) was greater than 40 µM. It also gave an IC50 (FXIa; 10 min preincubation) greater than 40 µM, an IC50 (FXIa; 60 min preincubation) greater than 40 µM and an IC50 (Trypsin; 1 min preincubation) greater than 40 µM. The IC50 (Trypsin; 10 min preincubation) was greater than 40 µM and the IC50 (Trypsin; 60 min preincubation) was greater than 40 µM.
For `O=C(NCc1cccc(Cl)c1)c1cnn(Cc2ccc(Cn3ccccc3=O)cc2)c1` [Compound 25], the IC50 (plasma kallikrein (PKa); [9]) was 270 nM, the IC50 (plasma kallikrein (PKa); [10]) was 284 nM and the IC50 (plasma kallikrein (PKa); [8]) was 278 nM.
For `Cc1ccc(C(CC(=O)c2cnn(Cc3ccc(Cn4cccn4)cc3)c2)B2OC(C)(C)C(C)(C)O2)c(F)c1` (centres unmarked) [Compound 32], the IC50 (Plasmin; [11]) was greater than 40 µM, the IC50 (Plasmin; [12]) was greater than 40 µM and the IC50 (Plasmin; [13]) was greater than 40 µM. The IC50 (Thrombin) was greater than 40 µM, the IC50 (Thrombin; [14]) was greater than 40 µM and the IC50 (Thrombin; [15]) was greater than 40 µM. It also gave an IC50 (FXIa; 1 min preincubation) greater than 40 µM, an IC50 (FXIa; 10 min preincubation) greater than 40 µM and an IC50 (FXIa; 60 min preincubation) greater than 40 µM.
In the case of `Cc1ccc(CNC(=O)c2cnn(Cc3ccc(Cn4ccccc4=O)cc3)c2)c(F)c1` [Compound 27], the IC50 (plasma kallikrein (PKa); [9]) is reported as 37 nM, the IC50 (plasma kallikrein (PKa); [10]) is reported as 37 nM and the IC50 (plasma kallikrein (PKa); [8]) is reported as 35 nM.
In the case of `CC1(C)OB(C(NC(=O)c2cnn(Cc3ccc(Cn4cccn4)cc3)c2)c2cccc(Cl)c2)OC1(C)C` (centres unmarked) [Compound 19], the IC50 (Plasmin; [11]) is reported as greater than 40 µM, the IC50 (Plasmin; [12]) is reported as greater than 40 µM and the IC50 (Plasmin; [13]) is reported as greater than 40 µM. For the same compound, the IC50 (Thrombin) was greater than 40 µM, the IC50 (Thrombin; [14]) was greater than 40 µM and the IC50 (Thrombin; [15]) was greater than 40 µM. It also gave an IC50 (FXIa; 1 min preincubation) greater than 40 µM, an IC50 (FXIa; 10 min preincubation) greater than 40 µM and an IC50 (FXIa; 60 min preincubation) greater than 40 µM.
In the case of `CC1(C)OB(C(N)c2cccc(Cl)c2)OC1(C)C.Cl` (centres unmarked) [Compound 15a], the “Inhibition of PKa (in words)” value (plasma kallikrein (PKa)) is reported as “no activity”, the IC50 (plasma kallikrein (PKa); [7]) is reported as greater than 400000 nM and the IC50 (plasma kallikrein (PKa); [8]) is reported as greater than 400000 nM. For the same compound, the IC50 (FXIIa; 5 min preincubation) was greater than 400 µM, the IC50 (FXIIa; 60 min preincubation) was greater than 400 µM and the “Stability in DMSO / aqueous media” value [1] was “unstable over time in DMSO”.
With `Cc1ccc(C(NC(=O)c2cnn(Cc3ccc(Cn4ccccc4=O)cc3)c2)B2OC(C)(C)C(C)(C)O2)c(F)c1` (centres unmarked) [Compound 21] the IC50 (plasma kallikrein (PKa); [9]) was 94 nM, the IC50 (plasma kallikrein (PKa); [10]) was 17 nM and the IC50 (plasma kallikrein (PKa); [8]) was 1.9 nM.
For “D-Phe-Pro-Arg-chloromethylketone [Compound 23, reference compound]”, the IC50 (Plasmin; read-out: Plasmin IC50, 1 min preincubation) was 3.64 µM, the IC50 (Plasmin; read-out: Plasmin IC50, 10 min preincubation) was 1.22 µM and the IC50 (Plasmin; read-out: Plasmin IC50, 60 min preincubation) was 0.248 µM. For the same compound, the IC50 (FXIa; 1 min preincubation) was greater than 40 µM, the IC50 (FXIa; 10 min preincubation) was greater than 40 µM and the IC50 (FXIa; 60 min preincubation) was greater than 40 µM.
In the case of `CC1(C)OB(C(NC(=O)c2cnn(Cc3ccccc3)c2)c2cccc(Cl)c2)OC1(C)C` (centres unmarked) [Compound 17a], the IC50 (FXIIa; 5 min preincubation) is reported as greater than 400 µM and the IC50 (FXIIa; 60 min preincubation) is reported as greater than 400 µM.
In the case of `N#Cc1ccc(Oc2ccc3c(c2)COB3O)cc1` [Crisaborole], the IC50 [4] is given as 0.49 µM.
For `Cc1cc(N)nc(C)c1CNC(=O)c1cnn(Cc2ccc(Cn3cccn3)cc2)c1` [Compound 11], the IC50 (PKa [5]) is listed as 0.002 µM.
For `N#Cc1cccc([C@@H](NCC2CC2)c2ccc(F)c(NC(=O)c3cc(C(F)(F)F)nn3-c3cccc(CN)c3)c2)c1` [berotralstat], the “Efficacy as an oral prophylactic for HAE” value [6] is listed as “efficacious”.
With `O=C(/C=C/c1cccc(Cl)c1)c1cnn(Cc2ccc(Cn3cccn3)cc2)c1` [Compound 29] the IC50 (plasma kallikrein (PKa); [9]) was greater than 40000 nM, the IC50 (plasma kallikrein (PKa); [10]) was greater than 40000 nM and the IC50 (plasma kallikrein (PKa); [8]) was greater than 40000 nM.
For `Cc1ccc(CNC(=O)c2cnn(Cc3ccc(Cn4cccn4)cc3)c2)c(F)c1` [Compound 26], the “Inhibitor dissociation from PKa” value (PKa [2]) was “rapid dissociation”, the IC50 (plasma kallikrein (PKa); [9]) was 199 nM and the IC50 (plasma kallikrein (PKa); [10]) was 203 nM. For the same compound, the IC50 (plasma kallikrein (PKa); [8]) was 196 nM, the IC50 (Plasmin; [11]) was greater than 40 µM and the IC50 (Plasmin; [12]) was greater than 40 µM. The IC50 (Plasmin; [13]) was greater than 40 µM, the IC50 (Thrombin) was greater than 40 µM and the IC50 (Thrombin; [14]) was greater than 40 µM. The IC50 (Thrombin; [15]) was greater than 40 µM, the IC50 (FXIa; 1 min preincubation) was greater than 40 µM and the IC50 (FXIa; 10 min preincubation) was greater than 40 µM. It also gave an IC50 (FXIa; 60 min preincubation) greater than 40 µM, an IC50 (Trypsin; 1 min preincubation) greater than 40 µM and an IC50 (Trypsin; 10 min preincubation) greater than 40 µM. It also gave an IC50 (Trypsin; 60 min preincubation) greater than 40 µM.

Reference: paper PMC11017388 (ACS Medicinal Chemistry Letters, 2024)
